Reference: publication PMC7698210 (International Journal of Molecular Sciences, 2020)
Read-outs that look alike come from different tables or passages of the source.

Key:
Assay in all cases: cell-based
H1R [1] = target: T1, H1R (Homo sapiens, UniProt P35367); set-up: gene HRH1; full receptor, C-terminal NlucC tag (11 aa split-NanoLuc fragment); co-expressed with NlucN-mGsq (mini-Gs/q71) in HEK293T; species or system HEK293T; conditions: HEK-293T, read-out: Mini G Protein Recruitment / Emax [%]
H2R [2] = target: T2, H2R (Homo sapiens, UniProt P25021); set-up: species or system HEK293T; conditions: HEK-293T; read-out: Mini G Protein Recruitment / Emax [%]
T2 construct: gene HRH2; full receptor, C-terminal NlucC tag (11 aa split-NanoLuc fragment); co-expressed with NlucN-mGs (mini-Gs393) in HEK293T
T2 sequence (P25021 whole entry, the tested form may be a part): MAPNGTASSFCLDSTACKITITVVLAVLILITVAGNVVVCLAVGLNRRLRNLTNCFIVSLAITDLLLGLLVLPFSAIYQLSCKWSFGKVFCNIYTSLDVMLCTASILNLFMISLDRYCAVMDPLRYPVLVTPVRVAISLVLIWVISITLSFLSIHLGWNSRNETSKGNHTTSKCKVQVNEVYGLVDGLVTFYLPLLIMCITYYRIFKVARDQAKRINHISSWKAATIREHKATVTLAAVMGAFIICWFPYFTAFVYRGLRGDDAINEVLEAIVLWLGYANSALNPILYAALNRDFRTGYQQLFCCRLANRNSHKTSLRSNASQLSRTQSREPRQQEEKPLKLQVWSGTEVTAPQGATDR

H2R [3] = target: T2, H2R; set-up: species or system HEK293T; conditions: HEK-293T; read-out: Mini G Protein Recruitment / Emax [%]; remark: listed apart in the source
H1R [4] = target: T1, H1R; set-up: gene HRH1; conditions: HEK-293T, read-out: Mini G Protein Recruitment / Emax [%]

T1 sequence (P35367 whole entry, the tested form may be a part): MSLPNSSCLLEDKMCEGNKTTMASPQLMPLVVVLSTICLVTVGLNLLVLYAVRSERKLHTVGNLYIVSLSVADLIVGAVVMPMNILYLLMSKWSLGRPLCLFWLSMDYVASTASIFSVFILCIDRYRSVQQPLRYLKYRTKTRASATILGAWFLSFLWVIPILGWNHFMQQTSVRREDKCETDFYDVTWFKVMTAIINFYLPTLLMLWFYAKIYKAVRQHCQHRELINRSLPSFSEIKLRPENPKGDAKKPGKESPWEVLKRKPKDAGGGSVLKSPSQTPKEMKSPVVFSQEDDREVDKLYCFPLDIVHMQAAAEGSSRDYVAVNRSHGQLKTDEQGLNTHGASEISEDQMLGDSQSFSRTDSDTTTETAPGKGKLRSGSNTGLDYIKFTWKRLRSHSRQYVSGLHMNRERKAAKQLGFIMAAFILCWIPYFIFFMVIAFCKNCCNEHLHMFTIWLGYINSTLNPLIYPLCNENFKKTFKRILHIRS

Emax (H1R [1]) | Emax (H2R [3]) | SMILES | Emax (H2R [2]) | also measured
33 ± 2% |  | NCCc1c[nH]c(CCC(c2ccccc2)c2ccccc2)n1 [histapro, histaprodifen] |  | 
 |  | CN(C)CCCSC(=N)N [dim, dimaprit] | 94 ± 2.6% | 
 | 100% | NCCc1c[nH]cn1 [his, histamine] |  | Emax (H1R [4]): 100%
29 ± 1.4% |  | CCC(=O)NC(N)=NCCCc1cnc[nH]1 [PI294, UR-PI294] | 95 ± 1.1% | 
49 ± 3.7% |  | c1ccc(C(CCc2nc(CCNCCc3c[nH]cn3)c[nH]2)c2ccccc2)cc1 [suprahis, suprahistaprodifen] |  | 
 | -8 ± 0.7% | CNC(=C[N+](=O)[O-])NCCSCc1ccc(CN(C)C)o1 [ran, ranitidine] |  | 
 |  | Cc1[nH]cnc1CSCCNC(=N)NCCCc1c[nH]cn1 [impro, impromidine] | 90 ± 1.5% | 
 | -8 ± 0.8% | CN=C(NC#N)NCCSCc1nc[nH]c1C [cim, cimetidine] |  | 
 |  | Cc1nc(N)sc1CCN [amt, amthamine] | 105 ± 2.8% | 
 | -9 ± 0.7% | NC(N)=Nc1nc(CSCCC(N)=NS(N)(=O)=O)cs1 [fam, famotidine] |  | 

SMILES | Emax (H1R [1]) | Emax (H2R [3]) | Emax (H2R [2]) | also measured
CNCCc1cnc[nH]1 [Namh, N^α-methylhistamine] | 99 ± 2% |  | 93 ± 1.7% | 
Cc1[nH]cnc1CCN [4mhis, 4-methylhistamine] | 44 ± 2.4% |  | 93 ± 2.2% | 
